Experiments:
Details in all cases: 72 h
[1] = tested on: HepG2; test: relative viability EC50 (midpoint between 100% and the lowest measured viability); higher = less toxic
[2] = tested on: Caco-2; test: as above
[3] = tested on: Vero E6; test: as above
[4] = tested on: U2OS; test: as above
[5] = tested on: Calu-3; test: as above
[6] = tested on: HepG2; test: drug sensitivity score (DSS) for viability; higher = more toxic; extreme values may be limits of the assay
[7] = tested on: Caco-2; test: as above
[8] = tested on: Vero E6; test: as above
[9] = tested on: U2OS; test: as above
[10] = tested on: Calu-3; test: as above
[11] = tested on: HepG2; test: cell viability relative to DMSO; higher = less toxic
[12] = tested on: Caco-2; test: as above
[13] = tested on: Vero E6; test: as above
[14] = tested on: U2OS; test: as above
[15] = tested on: Calu-3; test: as above

| SMILES | relative viability EC50 [1] | relative viability EC50 [2] | relative viability EC50 [3] | relative viability EC50 [4] | relative viability EC50 [5] | drug sensitivity score [6] | drug sensitivity score [7] | drug sensitivity score [8] | drug sensitivity score [9] | drug sensitivity score [10] | cell viability ([11]; 1 nM) | cell viability ([11]; 10 nM) | cell viability ([11]; 100 nM) | cell viability ([11]; 1000 nM) | cell viability ([11]; 10000 nM) | cell viability ([12]; 1 nM) | cell viability ([12]; 10 nM) | cell viability ([12]; 100 nM) | cell viability ([12]; 1000 nM) | cell viability ([12]; 10000 nM) | cell viability ([13]; 1 nM) | cell viability ([13]; 10 nM) | cell viability ([13]; 100 nM) | cell viability ([13]; 1000 nM) | cell viability ([13]; 10000 nM) | cell viability ([14]; 1 nM) | cell viability ([14]; 10 nM) | cell viability ([14]; 100 nM) | cell viability ([14]; 1000 nM) | cell viability ([14]; 10000 nM) | cell viability ([15]; 1 nM) | cell viability ([15]; 10 nM) | cell viability ([15]; 100 nM) | cell viability ([15]; 1000 nM) | cell viability ([15]; 10000 nM) |
| --- | --- | --- | --- | --- | --- | --- | --- | --- | --- | --- | --- | --- | --- | --- | --- | --- | --- | --- | --- | --- | --- | --- | --- | --- | --- | --- | --- | --- | --- | --- | --- | --- | --- | --- | --- |
| CC1Sc2c(C(=O)O)c(=O)c3cc(F)c(N4CCNCC4)cc3n21 (stereo not given) [ulifloxacin] | > 10 µM | > 10 µM | > 10 µM | > 10 µM | > 10 µM | 0.7 | 0 | 0 | 0.5 | 0 | 112% | 98.9% | 86.5% | 98.2% | 78.9% | 95.8% | 124% | 107% | 108% | 104% | 96.5% | 95.9% | 109% | 104% | 90.5% | 99.1% | 101% | 98.2% | 97.9% | 83.8% | 116% | 95.3% | 94% | 106% | 102% |
| Cc1cccn2c(=O)c(/C=C(\C#N)c3nc4ccccc4s3)c(Oc3ccc(F)cc3)nc12 | > 10 µM | > 10 µM | > 10 µM | > 10 µM | > 10 µM | 0 | 0 | 0 | 0 | 0 | 103% | 99.6% | 100% | 99.3% | 102% | 105% | 96.3% | 113% | 115% | 119% | 103% | 100% | 98.9% | 98.7% | 95.8% | 98.3% | 98.2% | 98.2% | 103% | 99.1% | 105% | 97.9% | 101% | 104% | 106% |
| O=c1cccc2n1C[C@@H]1CNC[C@H]2C1 [cytisine] | > 10 µM | > 10 µM | > 10 µM | > 10 µM | > 10 µM | 0 | 0 | 0 | 0 | 0 | 102% | 101% | 96.4% | 97% | 114% | 93.3% | 92.2% | 92.4% | 91.3% | 96.5% | 88.2% | 98.6% | 92.5% | 97.3% | 108% | 102% | 96.2% | 101% | 100% | 102% | 101% | 95.6% | 99% | 95.4% | 104% |
| O=S(=O)(NCCCCCCc1ccccc1)c1cccc2c(Cl)cccc12 [SC-9] | > 10 µM | > 10 µM | > 10 µM | > 10 µM | > 10 µM | 0 | 0 | 0 | 0 | 0 | 105% | 96.6% | 103% | 108% | 119% | 91.8% | 89% | 87.2% | 101% | 94.5% | 99% | 101% | 96.8% | 102% | 107% | 94.6% | 97.9% | 92.7% | 97.4% | 99.5% | 102% | 108% | 102% | 96.8% | 101% |
| COC(=O)[C@@H]1C[C@H](OC(C)=O)C(=O)[C@H]2[C@@]1(C)CC[C@H]1C(=O)O[C@H](c3ccoc3)C[C@]21C [salvinorin-A] | > 10 µM | > 10 µM | > 10 µM | > 10 µM | > 10 µM | 0 | 0 | 0 | 0 | 0 | 88.2% | 106% | 105% | 98.2% | 101% | 112% | 112% | 101% | 101% | 97.2% | 98.5% | 108% | 106% | 91.8% | 98.4% | 97.9% | 101% | 93.1% | 97% | 97.3% | 110% | 91.3% | 97.5% | 107% | 109% |
| O=C(O)Cc1cccc2c(=O)cc(-c3ccccc3)oc12 [mitoflaxone] | > 10 µM | > 10 µM | > 10 µM | > 10 µM | > 10 µM | 0 | 0 | 0 | 0 | 0 | 98.3% | 92.3% | 93.2% | 103% | 114% | 86% | 101% | 89.6% | 104% | 112% | 96.9% | 99.8% | 95.7% | 94.9% | 107% | 99.5% | 98% | 97.3% | 102% | 104% | 96% | 102% | 97% | 95.8% | 112% |
| CCCCCC(O)CCCC(=O)O (stereo not given) | > 10 µM | > 10 µM | > 10 µM | > 10 µM | > 10 µM | 0 | 0.5 | 0 | 0 | 0 | 90.7% | 95.5% | 85.8% | 98.5% | 92.5% | 95.3% | 79% | 82.1% | 93.7% | 101% | 86.1% | 102% | 95.1% | 95.3% | 90.2% | 98.1% | 97.8% | 100% | 95.8% | 102% | 98.6% | 103% | 101% | 95.9% | 99.4% |
| CCN1C(=O)CNc2ncc(-c3ccc(-c4nc[nH]n4)nc3C)nc21 [CC-115] | 0.894 µM | 0.411 µM | 1.04 µM | 1.11 µM | 0.4 µM | 9.3 | 12.7 | 8.7 | 10.5 | 12.8 | 108% | 102% | 105% | 57.2% | 25.1% | 94.7% | 96.4% | 89.2% | 39.8% | 20.5% | 108% | 103% | 103% | 64.4% | 24.8% | 100% | 102% | 99.6% | 59.4% | 6.6% | 106% | 92% | 91.9% | 37.3% | 21.6% |
| Oc1c(I)cc(Cl)c2cccnc12 [clioquinol] | > 10 µM | > 10 µM | > 10 µM | > 10 µM | > 10 µM | 0.7 | 0.2 | 0 | 0 | 0 | 101% | 98.7% | 92.8% | 104% | 75.6% | 93.5% | 92.2% | 108% | 99.7% | 85.8% | 106% | 99.3% | 108% | 111% | 87.2% | 97.1% | 93.6% | 100% | 96.4% | 99.5% | 95% | 93.2% | 104% | 87.8% | 97.1% |
| CC[C@]12CCCN3CCc4c(n(c5ccccc45)[C@@](O)(C(=O)OC)C1)[C@@H]32 [vincamine] | > 10 µM | > 10 µM | > 10 µM | > 10 µM | > 10 µM | 0 | 0 | 0 | 0 | 0 | 99.1% | 73.5% | 118% | 102% | 97.7% | 101% | 105% | 91.6% | 101% | 100% | 103% | 89.9% | 104% | 94% | 97.7% | 95.3% | 99.3% | 96.2% | 99.7% | 97.3% | 103% | 94.2% | 94.9% | 95.6% | 102% |
| COc1cc(N)c(Cl)cc1C(=O)NC1CCN(Cc2ccccc2)CC1 [clebopride] | > 10 µM | > 10 µM | > 10 µM | > 10 µM | > 10 µM | 0 | 0.1 | 0 | 0 | 0 | 97.1% | 97.5% | 95.1% | 104% | 94.7% | 107% | 99.9% | 108% | 102% | 85.6% | 93.6% | 104% | 102% | 97.6% | 98.1% | 93.7% | 97.2% | 96.8% | 97.3% | 94% | 94.3% | 101% | 107% | 96.6% | 94.2% |
| CCC1(CC)C(=O)NC(=O)N(C)C1=O [metharbital] | > 10 µM | > 10 µM | > 10 µM | > 10 µM | > 10 µM | 0 | 0 | 0 | 0 | 0 | 91.8% | 104% | 95.9% | 102% | 103% | 94.3% | 97.7% | 104% | 102% | 93.1% | 93% | 96.8% | 94.1% | 92.3% | 103% | 100% | 93.4% | 99.1% | 92.9% | 97.1% | 110% | 92.6% | 110% | 98.4% | 95% |
| O=C(O)CNC(=O)c1c(O)c2ccccc2n(Cc2ccccc2)c1=O [IOX2] | > 10 µM | > 10 µM | > 10 µM | > 10 µM | > 10 µM | 0 | 0 | 0 | 0 | 0 | 108% | 106% | 108% | 93.9% | 106% | 95.4% | 97.1% | 92% | 102% | 93.2% | 104% | 99.7% | 102% | 106% | 98.4% | 96.2% | 102% | 94.8% | 98.5% | 95.6% | 87% | 88% | 85.8% | 96% | 87.4% |
| COc1cc(Br)c(S(=O)(=O)Nc2ccc(Cl)c(O[C@@H]3CCN(C)C3)c2)cc1OC | 2.13 µM | > 10 µM | > 10 µM | > 10 µM | > 10 µM | 4.9 | 0 | 0 | 0 | 0 | 97.6% | 98.3% | 106% | 91.8% | 36.3% | 104% | 93.7% | 99.7% | 94.9% | 90% | 101% | 93.6% | 96.1% | 97.8% | 108% | 95.2% | 97.4% | 88.5% | 97.7% | 95% | 80.8% | 99.2% | 90.3% | 94.3% | 85% |
| CONC(=N)c1ccc(-c2ccc(-c3ccc(C(=N)NOC)cc3)o2)cc1 [pafuramidine] | > 10 µM | > 10 µM | > 10 µM | > 10 µM | > 10 µM | 0 | 0 | 0 | 0 | 0 | 94.4% | 106% | 99.2% | 92.9% | 110% | 92.3% | 97% | 92.5% | 97.5% | 87.9% | 98.2% | 97.5% | 96% | 93.9% | 107% | 99.1% | 99.8% | 96.9% | 102% | 98.9% | 98.3% | 97.4% | 95.4% | 96% | 98.5% |

Reference: the supplement of paper PMC13380429
